Data on 13 molecules can be found in ChEMBL document CHEMBL1122477, “Neuroleptic activity and dopamine-uptake inhibition in 1-piperazino-3-phenylindans” (J Med Chem, 1983).

Assay [1] relates to Rattus norvegicus. The experiment in a line: Tested orally in rats for antagonism of stereotypies induced by amphetamine. In kind it is functional.
Assay [2] addresses T1, Sodium-dependent serotonin transporter (Rattus norvegicus, UniProt P31652).
For assay [3], the species on record is Mus musculus.
Description: (§1) Compound (administered intraperitoneally) was assessed for neuroleptic activity to antagonize methyl phenidate induced stereotypes in mice
The target in the next assay is Adrenergic receptor beta (Rattus norvegicus, UniProt P18090+P10608+P26255).
Assay [4] is filed under the species Rattus norvegicus. The experiment in a line: animal or person. As to conditions: po.
Description: (§2) Ability to induce catalepsy in rats perorally, an effect normally related to clinical extrapyramidal side effects
Assay [5] has as its target Sodium-dependent dopamine transporter (Rattus norvegicus, UniProt P23977).
Description: Effect on synaptosomal uptake inhibition of Dopamine transporter
For assay [6], the species on record is Rattus norvegicus.
Description: as §2
In assay [7] the target is T1, Sodium-dependent serotonin transporter. Briefly: Effect on synaptosomal uptake inhibition of 5-hydroxytryptamine (5-HT). The class given is functional.
The species entered for assay [8] is Mus musculus. The experiment in a line: Compound was assessed for thymoleptic activity by its ability to antagonize tetrabenazine ptosis in mice. The class given is functional.
Assay [9] concerns the target Norepinephrine transporter (Rattus norvegicus, UniProt Q9WTR4).
Description: (§3) Effect on synaptosomal uptake inhibition of Noradrenaline (NA)
Assay [10] concerns Rattus norvegicus. Briefly: Compound was tested orally (po) in rats for antagonism of stereotypies induced by amphetamine; value ranges from 2.5-4.7. In kind it is functional.
Assay [11] relates to Rattus norvegicus. Briefly: Compound was tested orally (po) in rats for its ability to induce catalepsy, an effect normally related to clinical extrapyramidal side effects;value ranges from 1.3-3.4. The class given is functional.
The species named for assay [12] is Mus musculus. Briefly: animal or person. As to conditions: ip.
Description: as §1
Where [13] appears, read: Rattus norvegicus, po, read-out: ED50.

T1 sequence (P31652 whole entry): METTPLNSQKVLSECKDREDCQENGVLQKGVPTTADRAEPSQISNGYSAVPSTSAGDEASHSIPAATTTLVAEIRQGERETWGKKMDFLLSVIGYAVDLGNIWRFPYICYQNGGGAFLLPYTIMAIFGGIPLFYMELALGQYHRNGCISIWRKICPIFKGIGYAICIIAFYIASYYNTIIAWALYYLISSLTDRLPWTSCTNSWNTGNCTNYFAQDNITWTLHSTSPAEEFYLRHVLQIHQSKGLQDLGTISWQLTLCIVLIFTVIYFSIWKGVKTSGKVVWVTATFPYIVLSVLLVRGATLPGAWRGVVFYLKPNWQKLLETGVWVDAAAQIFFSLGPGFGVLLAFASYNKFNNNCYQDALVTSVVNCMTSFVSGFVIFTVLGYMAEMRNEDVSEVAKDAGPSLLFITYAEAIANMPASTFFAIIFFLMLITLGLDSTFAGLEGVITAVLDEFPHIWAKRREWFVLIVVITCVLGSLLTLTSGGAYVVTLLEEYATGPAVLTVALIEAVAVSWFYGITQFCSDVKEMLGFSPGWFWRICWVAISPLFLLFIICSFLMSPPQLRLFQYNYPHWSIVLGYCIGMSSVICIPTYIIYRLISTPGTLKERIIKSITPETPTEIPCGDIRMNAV
Chain of Sodium-dependent dopamine transporter (P23977 whole entry): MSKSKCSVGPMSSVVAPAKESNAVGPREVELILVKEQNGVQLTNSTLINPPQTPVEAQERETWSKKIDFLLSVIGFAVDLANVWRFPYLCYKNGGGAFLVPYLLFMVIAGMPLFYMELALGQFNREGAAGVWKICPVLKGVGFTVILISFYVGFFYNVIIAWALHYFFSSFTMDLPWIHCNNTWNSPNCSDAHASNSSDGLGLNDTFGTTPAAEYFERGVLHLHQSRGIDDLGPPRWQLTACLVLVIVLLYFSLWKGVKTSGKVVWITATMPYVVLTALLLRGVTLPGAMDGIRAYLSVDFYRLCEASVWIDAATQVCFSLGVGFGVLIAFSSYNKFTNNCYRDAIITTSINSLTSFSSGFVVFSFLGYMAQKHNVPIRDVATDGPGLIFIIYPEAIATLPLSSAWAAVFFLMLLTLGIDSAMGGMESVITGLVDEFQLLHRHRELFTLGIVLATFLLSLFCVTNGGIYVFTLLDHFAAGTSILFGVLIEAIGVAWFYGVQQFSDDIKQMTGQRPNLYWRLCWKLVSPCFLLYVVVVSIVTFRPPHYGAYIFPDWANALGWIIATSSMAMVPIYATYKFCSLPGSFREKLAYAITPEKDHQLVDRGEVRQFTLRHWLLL
Chain of Norepinephrine transporter (Q9WTR4 whole entry): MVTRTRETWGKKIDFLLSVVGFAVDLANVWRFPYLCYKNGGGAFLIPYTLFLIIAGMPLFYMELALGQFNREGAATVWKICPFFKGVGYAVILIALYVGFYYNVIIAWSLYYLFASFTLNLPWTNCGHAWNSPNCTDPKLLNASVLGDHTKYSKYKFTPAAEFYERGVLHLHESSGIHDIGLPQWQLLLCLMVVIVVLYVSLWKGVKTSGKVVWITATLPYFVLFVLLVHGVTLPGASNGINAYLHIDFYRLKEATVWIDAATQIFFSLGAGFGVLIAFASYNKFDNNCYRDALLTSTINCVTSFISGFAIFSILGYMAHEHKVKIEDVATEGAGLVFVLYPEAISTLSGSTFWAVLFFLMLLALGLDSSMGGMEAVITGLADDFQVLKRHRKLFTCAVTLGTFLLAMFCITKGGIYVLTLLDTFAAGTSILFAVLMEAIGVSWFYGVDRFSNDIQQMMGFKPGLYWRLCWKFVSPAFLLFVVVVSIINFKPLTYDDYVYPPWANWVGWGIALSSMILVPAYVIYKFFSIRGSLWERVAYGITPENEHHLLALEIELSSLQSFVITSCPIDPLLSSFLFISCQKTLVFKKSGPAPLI
Description for Adrenergic receptor beta: as §3
Description for Dopamine receptor: Effect on synaptosomal uptake inhibition of Dopamine receptor

The IC50 is the concentration that gives 50% inhibition. Higher therefore signals a need for much substance. Take `Cl.Cl.OCCN1CCN(C2CC(c3ccc(F)cc3)c3ccc(F)cc32)CC1` (stereo unspecified): the ED50 in the assay on Rattus norvegicus [1] was 14 µM/kg; in the assay listed under Mus musculus [3], 7 µM/kg; in the assay filed under Rattus norvegicus [4], 184 µmol/kg. The figures for the IC50 (in assay [2]; at Adrenergic receptor beta) were 2300 nM and 150 nM, respectively.
For `OCCN1CCN(C2CC(c3ccc(F)cc3)c3ccc(F)cc32)CC1` (stereo unspecified), the ED50 in the assay with Rattus norvegicus [1] and in the assay listed under Mus musculus [3] was greater than 112 µM/kg throughout. In addition, the IC50 worked out at 9700 nM in [2] and 140 nM against Adrenergic receptor beta.
For `Cl.Cl.OCCCCN1CCN(C2CC(c3ccc(F)cc3)c3ccc(F)cc32)CC1` (cis isomer), the IC50 in assay [2] is 1900 nM; in assay [5] it was 9 nM; at Adrenergic receptor beta, 30 nM. This molecule showed an ED50 in the assay listed under Mus musculus [3] of 54 µM/kg.
As for `Cl.Cl.OCCN1CCN(C2CC(c3ccc(F)cc3)c3ccc(C(F)(F)F)cc32)CC1` (cis isomer), the IC50 in assay [5] amounted to 93 nM. Also, the ED50 is greater than 80 µM/kg in the assay filed under Mus musculus [3] and greater than 166 µM/kg in the assay filed under Rattus norvegicus [6].
As to `CN(C)C[C@@H]1C2CCC(CC2)[C@@H]1c1ccc(Cl)c(Cl)c1` (relative stereo), the IC50 in assay [7] was 51 nM; in assay [9], 5.4 nM. Further, the ED50 in the assay listed under Mus musculus [8] was found to be 43 µmol/kg.
On to `CN1CCN(C2CC(c3ccc(Cl)c(Cl)c3)c3ccccc32)CC1.Cl.Cl` (single isomer, unassigned; 98), for which the IC50 is 2300 nM in assay [7], 910 nM in assay [9] and 1700 nM against Dopamine receptor. In the assay listed under Mus musculus [8], this molecule registered an ED50 greater than 89 µmol/kg.
With `CN1CCN(C2CC(c3ccc(F)cc3)c3ccc(F)cc32)CC1.Cl.Cl` (single isomer, unassigned; (+)), the ED50 in the assay with Rattus norvegicus [1] came out at 15 µM/kg; in the assay filed under Mus musculus [3] it was 2.5 µM/kg; in the assay listed under Rattus norvegicus [6] it was 41 µM/kg. Besides, the IC50 in [2] is 4000 nM; in assay [5], 1800 nM.
As to `CN1CCN(C2CC(c3ccc(F)cc3)c3ccc(F)cc32)CC1.Cl.Cl` (stereo in doubt; 53), the ED50 with Rattus norvegicus [1] amounted to 37 µM/kg; in the assay listed under Mus musculus [3], 11 µM/kg; in the assay listed under Rattus norvegicus [6], 202 µM/kg. The values for the IC50 in assay [2] and in assay [5] were 2000 nM and 180 nM, respectively.
On the same counts, the results for `CN1CCN(C2CC(c3ccc(F)cc3)c3ccc(F)cc32)CC1.Cl.Cl` (stereo in doubt; 55) are greater than 200 µM/kg, 42 µM/kg, greater than 790 µM/kg, 630 nM and 88 nM.
On to `Cl.Cl.OCCCCN1CCN(C2CC(c3ccc(F)cc3)c3ccc(F)cc32)CC1` (trans isomer), for which the ED50 in the assay with Rattus norvegicus [1] (setting [13]) came out at 7.7 µmol/kg; in the assay listed under Mus musculus [3], 6.5 µM/kg; in the assay filed under Rattus norvegicus [4], 47 µmol/kg. Moreover, the results for the IC50 (in [2]; in [5]; on Adrenergic receptor beta) were 610 nM, 25 nM and 19 nM, respectively.
Take `Cl.Cl.OCC(O)CN1CCN(C2CC(c3ccc(F)cc3)c3ccc(F)cc32)CC1` (trans isomer): the ED50 with Rattus norvegicus [1] (setting [13]) is 33 µmol/kg; in the assay listed under Mus musculus [3] it was 2.9 µM/kg; in the assay filed under Rattus norvegicus [6], greater than 280 µM/kg.
As for `OCCN1CCN(C2CC(c3ccc(F)cc3)c3ccc(C(F)(F)F)cc32)CC1` (trans isomer), the values for the ED50 in the assay with Rattus norvegicus [1] (setting [13]), in the assay filed under Mus musculus [3] and in the assay listed under Rattus norvegicus [6] were 0.22 µmol/kg, 0.07 µM/kg and 0.27 µM/kg, respectively. The half-inhibitory concentration (IC50) in assay [2] came to 7000 nM; in assay [5], 520 nM; against Adrenergic receptor beta, 660 nM.
`OCCN1CCN(CC/C=C2/c3ccccc3Sc3ccc(C(F)(F)F)cc32)CC1` [Z-FLUPENTIXOL]: the values for the ED50 in the assay with Rattus norvegicus [10], in the assay on Rattus norvegicus [11] and in the assay listed under Mus musculus [12] were 3.5 µmol/kg, 2.1 µmol/kg and 0.14 µmol/kg, respectively.
